What all share (format): functional
The test system of experiment [1] is BT-549. As to the kind of experiment: Cytotoxicity against human BT549 cells assessed as growth inhibition at 10 uM after 48 hrs by coulter counter analysis. The note with it: BT-549, 48 h, read-out: GI.
For experiment [2], the system named is HL-60(TB). As to the kind of experiment: Cytotoxicity against human HL-60(TB) cells assessed as growth inhibition at 10 uM after 48 hrs by coulter counter analysis. The note with it: HL-60, 48 h, read-out: GI.
For experiment [3], the system named is MDA-MB-231. As to the kind of experiment: Cytotoxicity against human MDA-MB-231 cells assessed as growth inhibition at 10 uM after 48 hrs by coulter counter analysis. Conditions: MDA-MB-231, 48 h, read-out: GI.
The subject of experiment [4] is Hs-578T. As to the kind of experiment: Cytotoxicity against human Hs578T cells assessed as growth inhibition at 10 uM after 48 hrs by coulter counter analysis. The note with it: read-out: GI.
Experiment [5] deals with DU-145. In words: Cytotoxicity against human DU145 cells assessed as growth inhibition at 10 uM after 48 hrs by coulter counter analysis. The note with it: DU-145, 48 h, read-out: GI.
For experiment [6], the system named is ACHN. In words: Cytotoxicity against human ACHN cells assessed as growth inhibition at 10 uM after 48 hrs by coulter counter analysis. Conditions: read-out: GI.
For experiment [7], the system named is SF-539. In words: Cytotoxicity against human SF539 cells assessed as growth inhibition at 10 uM after 48 hrs by coulter counter analysis. Conditions: SF-539, 48 h, read-out: GI.
In experiment [8] the test system is OVCAR-3. As to the kind of experiment: Cytotoxicity against human OVCAR3 cells assessed as growth inhibition at 10 uM after 48 hrs by coulter counter analysis. The note with it: OVCAR-3, 48 h, read-out: GI.
Experiment [9] has as its system HCT-116. In words: Cytotoxicity against human HCT116 cells assessed as growth inhibition at 10 uM after 48 hrs by coulter counter analysis. The note with it: HCT-116, 48 h, read-out: GI.
In experiment [10] the test system is SK-MEL-5. As to the kind of experiment: Cytotoxicity against human SK-MEL-5 cells assessed as growth inhibition at 10 uM after 48 hrs by coulter counter analysis. The note with it: SK-MEL-5, 48 h, read-out: GI.
For experiment [11], the system named is MOLT-4. As to the kind of experiment: Cytotoxicity against human MOLT4 cells assessed as growth inhibition at 10 uM after 48 hrs by coulter counter analysis. The note with it: MOLT-4, 48 h, read-out: GI.
The test system of experiment [12] is HOP-62. As to the kind of experiment: Cytotoxicity against human HOP62 cells assessed as growth inhibition at 10 uM after 48 hrs by coulter counter analysis. Conditions: HOP-62, 48 h, read-out: GI.
In experiment [13] the test system is HCC 2998. As to the kind of experiment: Cytotoxicity against human HCC2998 cells assessed as growth inhibition at 10 uM after 48 hrs by coulter counter analysis. Conditions: HCC 2998, 48 h, read-out: GI.
The subject of experiment [14] is NCI-H522. In words: Cytotoxicity against human NCI-H522 cells assessed as growth inhibition at 10 uM after 48 hrs by coulter counter analysis. The note with it: NCI-H522, 48 h, read-out: GI.
The test system of experiment [15] is NCI-H460. As to the kind of experiment: Cytotoxicity against human NCI-H460 cells assessed as growth inhibition at 10 uM after 48 hrs by coulter counter analysis. The note with it: NCI-H460, 48 h, read-out: GI.
The subject of experiment [16] is NCI-H23. As to the kind of experiment: Cytotoxicity against human NCI-H23 cells assessed as growth inhibition at 10 uM after 48 hrs by coulter counter analysis. Conditions: NCI-H23, 48 h, read-out: GI.
Experiment [17] in a line: Cytotoxicity against human melanoma cells after 48 hrs by coulter counter analysis. Conditions: Melanoma cell.
A short description of experiment [18]: Cytotoxicity against human prostate cancer cells after 48 hrs by coulter counter analysis. Conditions: Cancer cell lines.
The nature of experiment [19]: Cytotoxicity against human renal cancer cells after 48 hrs by coulter counter analysis. Conditions: Cancer cell lines.
Experiment [20] can be described thus: Cytotoxicity against human colon cancer cells after 48 hrs by coulter counter analysis. Conditions: Cancer cell lines.
Experiment [21] can be described thus: Cytotoxicity against human leukemia cells after 48 hrs by coulter counter analysis. The note with it: Leukemia cell.
Experiment [22] is described as follows: Cytotoxicity against human ovarian cancer cells after 48 hrs by coulter counter analysis. The note with it: Cancer cell lines.
Experiment [23] in a line: Cytotoxicity against human breast cancer cells after 48 hrs by coulter counter analysis. Conditions: Cancer cell lines.
A short description of experiment [24]: Cytotoxicity against human CNS cancer cells after 48 hrs by coulter counter analysis. The note with it: Cancer cell lines.
Experiment [25] in a line: Cytotoxicity against human non-small cell lung cancer cells after 48 hrs by coulter counter analysis. The note with it: Cancer cell lines.
The mark [26] stands for this setting: read-out: LC50 (the source's name).

Some results are limits rather than exact numbers.

As for `Cc1ccc(NC(=O)CSc2nc3ccccc3c(=O)n2CCc2ccccc2)cc1`, the inhibition of growth at 10 µM is below 10% in experiment [1]; below 10% in experiment [2]; 23% in [3]; 41% in experiment [4]; below 10% in experiment [5]; 21% in experiment [6]. Moreover, the inhibition of growth at 10 µM in experiment [7] is 19%; in experiment [8] it was below 10%; in experiment [9] it was 13%; in [10] it was 22%; in experiment [11], below 10%; in experiment [12], 42%. In addition, the inhibition of growth at 10 µM is below 10% in experiment [13], 22% in experiment [14], 22% in experiment [15] and below 10% in [16].

Turning to `O=C(CSc1nc2ccccc2c(=O)n1CCc1ccccc1)Nc1ccc(F)cc1`, the inhibition of growth at 10 µM in [1] was 10%; in [2], 25%; in experiment [3], 22%; in [4], 16%; in [5] it was below 10%; in experiment [6], 16%. In addition, the inhibition of growth at 10 µM was below 10% in experiment [7]; below 10% in [8]; 19% in [9]; 16% in experiment [10]; 26% in [11]; below 10% in [12]. Also, the inhibition of growth at 10 µM in [13] was below 10%; in experiment [14], 31%; in experiment [15], below 10%; in experiment [16], 12%.

Consider `COc1cc(NC(=O)CCSc2nc3ccccc3c(=O)n2CCc2ccccc2)cc(OC)c1OC`, for which the inhibition of growth at 10 µM was 13% in experiment [1]; 27% in [2]; 66% in experiment [3]; 67% in [4]; below 10% in experiment [5]; 21% in experiment [6]. Moreover, the inhibition of growth at 10 µM in [7] stood at 70%; in experiment [8], 11%; in experiment [9] it was 40%; in experiment [10], 31%; in [11] it was 40%; in experiment [12], 45%. Also, the inhibition of growth at 10 µM in experiment [13] was below 10%; in experiment [14] it was 52%; in experiment [15], 17%; in experiment [16] it was 28%.

A word on the GI50: it is the concentration at which growth is held to half of that of the control. Higher therefore signals lower sensitivity of the cells. A word on the TGI: it is the concentration at which net growth stops. A lower TGI goes with more potent growth arrest. As to `COc1cc(NC(=O)CSc2nc3ccccc3c(=O)n2CCc2ccccc2)cc(OC)c1OC`, the concentration for 50% growth inhibition (GI50) in experiment [17] is 3.3 µM; in experiment [18], 4.98 µM; in experiment [19] it was 1.77 µM; in [20] it was 2.02 µM; in experiment [21], above 100 µM; in experiment [22], 2.55 µM. Moreover, the 50% growth inhibitory concentration (GI50) is 2.77 µM in experiment [23], 2.73 µM in experiment [24] and 2.04 µM in experiment [25]. The TGI in [17] was 76.6 µM; in [18], above 100 µM; in experiment [19], 3.63 µM; in experiment [20], above 100 µM; in experiment [21], above 100 µM; in experiment [22], 52 µM. The total growth inhibition concentration (TGI) in experiment [23] turned out to be 44.1 µM; in experiment [24] it was 13.5 µM; in experiment [25], 43.1 µM. The inhibition of growth at 10 µM in experiment [1] was above 100%; in [3], above 100%; in [4] it was 64%; in experiment [5] it was 55%; in [6], above 100%; in experiment [7], above 100%. Moreover, the inhibition of growth at 10 µM is above 100% in [8]; above 100% in experiment [9]; above 100% in experiment [10]; 91% in [12]; 66% in experiment [13]; above 100% in experiment [14]. Besides, the results for the inhibition of growth at 10 µM in [15] and in experiment [16] were above 100% and 74%, respectively. Besides, the CC50 in [18] (setting [26]) was above 100 µM; in experiment [20] (setting [26]) it was above 100 µM; in experiment [24] (setting [26]), 75 µM; in experiment [25] (setting [26]) it was above 100 µM.

As to `O=C(CSc1nc2ccccc2c(=O)n1CCc1ccccc1)Nc1ccccc1`, the inhibition of growth at 10 µM in experiment [1] was below 10%; in [2], 17%; in experiment [3] it was 35%; in experiment [4] it was below 10%; in experiment [5] it was below 10%; in [6], below 10%. For the same compound, the inhibition of growth at 10 µM in experiment [7] was below 10%; in [8] it was below 10%; in [9], 15%; in experiment [10], 13%; in [11], below 10%; in [12], below 10%. In addition, the inhibition of growth at 10 µM in experiment [13] is below 10%; in [14], 10%; in [15] it was below 10%; in [16], 11%.

Values taken from ChEMBL document CHEMBL2396621, “Design, synthesis and biological evaluation of 2-mercapto-3-phenethylquinazoline bearing anilide fragments as potential antitumor agents: molecular docking study” (2013).
